PMC9695823, “Regioselective Synthesis of 6-O-Acetyl Dieckol and Its Selective Cytotoxicity against Non-Small-Cell Lung Cancer Cells” (Marine Drugs, 2022)

Columns and labels:
A549 cells = experiment: MTT cytotoxicity assay against A549 non-small-cell lung cancer cells; assay type: cell-based; details: for IC50: Homo sapiens, A549
Procedure: (§1) The cytotoxicity of DK and its various acyl and alkyl derivatives was assessed using the MTT assay against a non-small-lung cancer cell line (A549) and a normal cell line (NIH/3T3) at […] different concentrations (0, 0.005, 0.05, 0.5, 5, 50 and 500 μM). Among the newly synthesized acyl derivatives, the 6-O-acetyl (2) and 6-O-benzoyl (3) derivatives were included in this study, while the 6-O-propionyl (4) and 6-O-toluoyl (5) derivatives, which had been considered to be very similar to 6-O-acetyl (2) and 6-O-benzoyl (3) derivatives, respectively, were excluded from this study. […] The methyl and benzyl derivatives (6 and 7) were selected in parallel with acetyl and benzoyl (2 and 3) derivatives, respectively, to identify any impact of substitution chemistry (via sp^2 vs. sp^3 carbon in acylations and alkylations, respectively) and steric effect in cytotoxicity. Methoxymethyl (8), 3-(ethoxycarbonyl)propyl (9) and hydroxypropyl (10) derivatives were selected to determine the size effect of moderately polar substituents with a common heteroatom such as oxygen.
(§2) The non-small-cell lung cancer cell line A549 and the normal cell line NIH/3T3 were purchased from Korea Cell Line Research Foundation (Seoul, Korea). The cell lines were cultured in Dulbecco’s modified Eagle’s medium (DMEM) supplemented with 10% FBS and 1% penicillin–streptomycin at 37 °C with 5% CO2.
The cytotoxicity of DK and its derivatives was assessed by MTT assay, based on the reduction of MTT into insoluble formazan crystals by metabolically active cells. Briefly, the cells ([…]) were seeded in each well containing culture medium in a 96-well plate. After the incubation for 24 h at 37 °C, various concentrations of DK and its derivatives were added. After 24 h, 10 μL of the MTT reagent ([…]) was added, and the plates were incubated for an additional 2 h. The medium was discarded, and the formazan blue, which was formed in the cells, was dissolved in […] of dimethyl sulfoxide (DMSO). The optical density was measured at 540 nm using a microplate spectrophotometer (Epoch; Agilent Technologies, Inc. Santa Clara, CA, USA). The IC50 corresponded to a 50% decrease in the number of cells compared to the untreated control. The results are represented as the mean of three independent experiments. The IC50 values of DK and its derivatives were determined for the different cell lines by nonlinear regression using GraphPad Prism v6.0 software (La Jolla, CA, USA).

[1] = design: method as in PMID 35542614; details: estimated; cited from earlier work
NIH/3T3 cells = experiment: MTT cytotoxicity assay against normal cell line NIH/3T3; assay type: cell-based; details: 24 h treatment, 0-500 μM, mean ± SD, listed as DK
Procedure: as §1, §2
(§3) The cytotoxicity of DK and its derivatives was assessed by MTT assay, based on the reduction of MTT into insoluble formazan crystals by metabolically active cells. Briefly, the cells ([…]) were seeded in each well containing culture medium in a 96-well plate. After the incubation for 24 h at 37 °C, various concentrations of DK and its derivatives were added. […] The optical density was measured at 540 nm using a microplate spectrophotometer (Epoch; Agilent Technologies, Inc. Santa Clara, CA, USA). […] The IC50 values of DK and its derivatives were determined for the different cell lines by nonlinear regression using GraphPad Prism v6.0 software (La Jolla, CA, USA).

[2] = tested on: NSCLC (A549) cells vs. normal (NIH/3T3) cells; experiment: Selectivity index, cytotoxicity A549 vs. NIH/3T3; assay type: cell-based; details: SI = IC50 (NIH/3T3 cells)/IC50 (A549 cells)
From the text: The ideal anticancer drug should have a relatively high toxic concentration on normal cells with a very low active concentration on cancer cells. In this study, the cancer-selective cytotoxicity of DK derivatives has been studied for the first time. To address this selectivity issue, the selectivity index (SI), which is defined as the ratio of the toxic concentration of a sample against its effective bioactive concentration according to Equation (1) (see Section 4.7), was used. […] An SI value ≥ 10 was assumed to belong to a selected potential sample that can be further investigated. Therefore, the acetyl and hydroxypropyl DKs would be highly considered for further investigations as potential anti-NSCLC chemotherapeutic agents.
The selectivity index (SI) was determined to assess the selective cytotoxicity of the DK derivatives against NSCLC (A549) cells vs. normal (NIH/3T3) cells based on Equation (1):SI = IC50 (NIH/3T3 cells)/IC50 (A549 cells)(1)

[3] = MTT cytotoxicity assay against normal cell line NIH/3T3; assay type: cell-based; details: mouse, NIH/3T3 normal cells, 24 h treatment, 0-500 μM, mean ± SD
Procedure: as §1, §2, §3

[4] = MTT, 24 h treatment, 0-500 μM, mean ± SD

SMILES | Cytotoxicity (IC50) A549 (A549 cells; MTT, 24 h treatment, 0-500 μM, mean ± SD, listed as DK) | lowest pKa [1] | Cytotoxicity (IC50) NIH/3T3 (NIH/3T3 cells) | times higher activity than 6-O-benzyl DK (A549 cells; A549 cells) | IC50 (A549 cells; [4]) | SI Value (selectivity index) [2] | IC50 at 24 h [3] | fold increase in IC50 compared with acetyl DK (A549 cells; A549 cells)
Oc1cc(O)cc(Oc2c(O)cc(O)c3c2Oc2c(O)cc(Oc4c(O)cc(Oc5c(O)cc(O)c6c5Oc5c(O)cc(O)cc5O6)cc4O)cc2O3)c1 [compound 1, Dieckol] | did not show detectable cytotoxicity | 5.0 | did not show detectable cytotoxicity | – | – | – | – | –
CC(=O)Oc1cc(O)cc2c1Oc1c(Oc3cc(O)c(Oc4cc(O)c5c(c4)Oc4c(O)cc(O)c(Oc6cc(O)cc(O)c6)c4O5)c(O)c3)c(O)cc(O)c1O2 [compound 2, 6-O-acetyl dieckol] | – | – | – | 120 times | 7.02 ± 1.53 µM | 68.58 | 481 µM | –
O=C(Oc1cc(O)cc2c1Oc1c(Oc3cc(O)c(Oc4cc(O)c5c(c4)Oc4c(O)cc(O)c(Oc6cc(O)cc(O)c6)c4O5)c(O)c3)c(O)cc(O)c1O2)c1ccccc1 [compound 3, 6-O-benzoyl dieckol] | – | – | – | – | 641 ± 17.9 µM | – | – | 91 fold
OCCCOc1cc(O)cc2c1Oc1c(Oc3cc(O)c(Oc4cc(O)c5c(c4)Oc4c(O)cc(O)c(Oc6cc(O)cc(O)c6)c4O5)c(O)c3)c(O)cc(O)c1O2 [compound 10] | – | – | – | – | 13.1 ± 5.06 µM | 43.07 | 563 ± 51.8 µM | –
